Laboratory results as given in patent US7427620B2, “Azole derivative useful as antifungal agents with reduced interaction with metabolic cytochromes” (Italfarmaco SPA, priority 2003, dated 2008).
In brackets after ≈: the same amount, converted by molar mass. Where two headings read alike, the source gives them in different places.

Assays:
[1] = tested on: Candida albicans; test: Antifungal activity, liquid phase microdilution (NCCLS M27/M38-P); format: cell-based
Description: (§1) Experiment A: Antifungal Activity of Compounds of the Formula (I)
(§2) The antifungal activity of the compounds of the formula (I) was determined using various strains of yeast and filamentous fungi. […] Table no.

[2] = tested on: Aspergillus fumigatus; test: as above; format: cell-based; parameters: IC50 (minimum concentration to bring about 50% inhibition): unit not given here; conditions: for IC50: Aspergillus fumigatus
Description: as §1, §2

[3] = molecular target: T1, CYP3A4 (Homo sapiens, UniProt P08684); test: Inhibition of human cytochromes, fluorescent substrates; format: in vitro ADME; conditions: isoenzyme (Gentest), 37° C.
T1 construct: purchased Gentest
T1 sequence (P08684 whole entry): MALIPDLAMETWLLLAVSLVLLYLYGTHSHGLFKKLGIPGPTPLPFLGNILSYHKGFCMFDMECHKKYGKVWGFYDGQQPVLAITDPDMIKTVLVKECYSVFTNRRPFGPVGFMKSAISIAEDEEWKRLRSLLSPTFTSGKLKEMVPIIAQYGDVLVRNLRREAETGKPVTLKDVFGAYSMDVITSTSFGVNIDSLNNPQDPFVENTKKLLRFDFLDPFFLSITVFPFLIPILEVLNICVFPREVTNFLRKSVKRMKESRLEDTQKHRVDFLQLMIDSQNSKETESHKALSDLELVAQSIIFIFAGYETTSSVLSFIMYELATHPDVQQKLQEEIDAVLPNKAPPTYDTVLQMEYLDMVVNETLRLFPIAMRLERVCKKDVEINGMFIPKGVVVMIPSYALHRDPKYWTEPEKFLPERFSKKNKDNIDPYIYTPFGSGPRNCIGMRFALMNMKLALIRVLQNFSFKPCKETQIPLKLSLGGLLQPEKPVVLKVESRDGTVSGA
Description: (§3) Experiment B: Inhibition of Human Cytochromes by Compounds of the Formula (I)
(§4) The individual isoenzymes (Gentest) and the respective substrates were incubated in 96 well plates in buffer containing […] at 37° C. in the presence or absence of the compound under investigation. […] The degree of inhibition of each individual isoenzyme by known inhibitors was also assessed as a positive control.

[4] = tested on: Candida glabrata; test: Antifungal activity, liquid phase microdilution (NCCLS M27/M38-P); format: cell-based; conditions: for IC50 (minimum concentration to bring about 50% inhibition): Candida glabrata strain 02-0902
Description: as §1, §2

[5] = tested on: Candida parapsilosis; test: as above; format: cell-based; conditions: for IC50 (minimum concentration to bring about 50% inhibition): Candida parapsilosis strain ATCC22019
Description: as §1, §2

[6] = molecular target: T2, CYP2C9 (Homo sapiens, UniProt P11712); test: Inhibition of human cytochromes, fluorescent substrates; format: in vitro ADME; conditions: isoenzyme (Gentest), 37° C.
T2 construct: purchased Gentest
T2 sequence (P11712 whole entry): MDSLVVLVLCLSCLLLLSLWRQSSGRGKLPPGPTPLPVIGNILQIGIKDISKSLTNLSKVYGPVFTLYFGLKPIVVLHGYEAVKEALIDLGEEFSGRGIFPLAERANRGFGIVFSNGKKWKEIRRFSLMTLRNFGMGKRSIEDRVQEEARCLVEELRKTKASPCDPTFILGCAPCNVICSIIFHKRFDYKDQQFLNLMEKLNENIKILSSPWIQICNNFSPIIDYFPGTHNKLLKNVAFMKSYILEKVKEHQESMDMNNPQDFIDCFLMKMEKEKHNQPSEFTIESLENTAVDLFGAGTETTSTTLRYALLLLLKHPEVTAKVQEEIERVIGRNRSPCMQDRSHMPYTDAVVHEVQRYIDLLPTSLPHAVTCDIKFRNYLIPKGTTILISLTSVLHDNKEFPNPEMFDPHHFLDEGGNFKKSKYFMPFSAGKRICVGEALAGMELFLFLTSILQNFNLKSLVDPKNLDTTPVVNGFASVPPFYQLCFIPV
Description: as §3
as §4, with “Inhibition of the enzymatic activity of the most significant isoforms of human cytochromes by the compounds of the formula (I) was measured by using specific substrates which become fluorescent as a result of the metabolic action of a particular cytochrome isoform. The individual” for “The individual”

[7] = molecular target: T3, CYP2C19 (Homo sapiens, UniProt P33261); test: as above; format: in vitro ADME; conditions: isoenzyme (Gentest), 37° C.
T3 construct: purchased Gentest
T3 sequence (P33261 whole entry): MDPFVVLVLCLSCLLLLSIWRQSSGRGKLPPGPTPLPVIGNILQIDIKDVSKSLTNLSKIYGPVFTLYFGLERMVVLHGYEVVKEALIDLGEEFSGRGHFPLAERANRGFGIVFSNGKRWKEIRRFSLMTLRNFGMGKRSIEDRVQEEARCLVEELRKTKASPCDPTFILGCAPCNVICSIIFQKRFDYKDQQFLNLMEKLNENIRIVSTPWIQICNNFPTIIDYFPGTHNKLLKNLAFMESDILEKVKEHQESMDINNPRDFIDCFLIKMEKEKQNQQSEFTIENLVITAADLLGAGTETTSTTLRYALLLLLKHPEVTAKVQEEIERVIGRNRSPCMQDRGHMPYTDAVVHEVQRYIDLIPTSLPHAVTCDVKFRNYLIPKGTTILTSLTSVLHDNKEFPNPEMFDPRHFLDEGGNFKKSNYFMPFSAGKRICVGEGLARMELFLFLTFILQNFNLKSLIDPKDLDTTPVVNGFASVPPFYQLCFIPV
Description: as §3
as §4, with “Inhibition of the enzymatic activity of the most significant isoforms of human cytochromes by the compounds of the formula (I) was measured by using specific substrates which become fluorescent as a result of the metabolic action of a particular cytochrome isoform. The individual” for “The individual”

[8] = molecular target: T4, CYP2D6 (Homo sapiens, UniProt P10635); test: as above; format: in vitro ADME; conditions: isoenzyme (Gentest), 37° C.
T4 construct: purchased Gentest
T4 sequence (P10635 whole entry): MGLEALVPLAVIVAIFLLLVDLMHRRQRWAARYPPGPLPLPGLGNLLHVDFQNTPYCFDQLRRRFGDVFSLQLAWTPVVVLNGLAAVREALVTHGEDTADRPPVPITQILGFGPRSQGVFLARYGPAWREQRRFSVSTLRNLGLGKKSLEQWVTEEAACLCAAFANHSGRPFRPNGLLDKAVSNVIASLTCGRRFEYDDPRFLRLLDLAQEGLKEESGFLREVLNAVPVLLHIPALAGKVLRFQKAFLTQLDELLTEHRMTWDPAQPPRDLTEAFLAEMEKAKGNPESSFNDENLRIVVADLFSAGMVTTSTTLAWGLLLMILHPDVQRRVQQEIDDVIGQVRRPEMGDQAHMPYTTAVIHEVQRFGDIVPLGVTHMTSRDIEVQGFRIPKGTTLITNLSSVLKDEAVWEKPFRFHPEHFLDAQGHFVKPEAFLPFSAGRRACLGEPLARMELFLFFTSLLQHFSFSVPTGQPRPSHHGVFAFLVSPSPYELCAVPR
Description: as §3
as §4, with “Inhibition of the enzymatic activity of the most significant isoforms of human cytochromes by the compounds of the formula (I) was measured by using specific substrates which become fluorescent as a result of the metabolic action of a particular cytochrome isoform. The individual” for “The individual”

[9] = molecular target: T5, CYP1A2 (Homo sapiens, UniProt P05177); test: as above; format: in vitro ADME; conditions: isoenzyme (Gentest), 37° C.
T5 construct: purchased Gentest
T5 sequence (P05177 1-516): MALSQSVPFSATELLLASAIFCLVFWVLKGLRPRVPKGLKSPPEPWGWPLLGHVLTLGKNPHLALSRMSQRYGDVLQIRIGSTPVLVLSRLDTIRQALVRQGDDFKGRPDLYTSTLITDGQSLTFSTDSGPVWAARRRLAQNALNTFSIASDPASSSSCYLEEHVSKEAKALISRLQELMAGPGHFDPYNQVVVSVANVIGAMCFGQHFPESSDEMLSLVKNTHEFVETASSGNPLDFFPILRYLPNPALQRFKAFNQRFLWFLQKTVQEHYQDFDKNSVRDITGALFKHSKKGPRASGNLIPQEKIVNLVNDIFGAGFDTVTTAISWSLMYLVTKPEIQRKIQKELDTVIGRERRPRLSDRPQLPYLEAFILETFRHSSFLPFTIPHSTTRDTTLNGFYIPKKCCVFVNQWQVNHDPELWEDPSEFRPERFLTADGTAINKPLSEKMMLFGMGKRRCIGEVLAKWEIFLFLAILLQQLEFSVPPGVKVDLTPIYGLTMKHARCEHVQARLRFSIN
Description: as §3
as §4, with “Inhibition of the enzymatic activity of the most significant isoforms of human cytochromes by the compounds of the formula (I) was measured by using specific substrates which become fluorescent as a result of the metabolic action of a particular cytochrome isoform. The individual” for “The individual”

[10] = tested on: Candida albicans; test: Mouse model of systemic candidiasis, survival; format: in vivo, CD1 mice; conditions: 50 mg/kg/day orally (25 mg/kg twice daily) for 10 days
Description: Experiment C: Study of the Efficacy of Compounds of the Formula (I) in a Mouse Model of Systemic Candidiasis.
The C. albicans isolate was cultured for 24 h in yeast dextrose broth. The blastospores were recovered by centrifugation, repeatedly washed in sterile saline solution and the inoculum adjusted to the desired concentration. The inoculum was verified by a subsequent count of CFU/ml on Sabouraud plates.
The mice were then inoculated intravenously (0.2 ml/mouse).
24 hours after inoculation with C. albicans, the animals were randomised into the following treatment groups (10 mice/group): • 1. […] Compound under investigation: 50 mg/kg/day (two 25 mg/kg treatments twice daily at 12 hour intervals) • 3. Compound under investigation; 10 mg/kg/day (two 5 mg/kg treatments twice daily at 12 hour intervals) • 4. Control (placebo)
The compounds were administered orally (suspension in PEG 200, 0.2 ml/mouse) for 10 consecutive days and the animals were observed until day 30. The survival curves between the various treatment groups and between these groups and the control group were evaluated using the Kaplan-Meier method.

[11] = Aspergillus fumigatus strain 34
[12] = Aspergillus fumigatus strain 99-2135

`CCC(C)n1ncn(-c2ccc(N3CCN(c4ccc(OCC5COC(Cn6cncn6)(c6cccc[n+]6[O-])O5)cc4)CC3)cc2)c1=O` (racemic) [Example 17, cis(±)-4-{4-[4-{4-[2-(1-oxy-pyridin-2-yl)-2-(1H-1,2,4-triazol-1-yl-methyl)-1,3dioxolan-4-yl-methoxy]phenyl}piperazin-1-yl]-phenyl}-2-[(1,R/S)-1-methylpropyl]-2,4-dihydro-3H-1,2,4-triazol-3-one] was tested, and the “IC50 (minimum concentration to bring about 50% inhibition)” value ([1]; Candida albicans strain 21) was 38 mg/mL (≈ 58100 µM) and the “IC50 (minimum concentration to bring about 50% inhibition)” value [2, 11] was greater than 64.
For `CCC(C)n1ncn(-c2ccc(N3CCN(c4ccc(OCC5COC(Cn6cncn6)(c6cc[n+]([O-])cc6)O5)cc4)CC3)cc2)c1=O` (racemic) [Example 18, cis(±)-4-{4-[4-{4-[2-(1-oxy-pyridin-4-yl)-2-(1H-1,2,4-triazol-1-yl-methyl)-1,3-dioxolan-4-yl-methoxy]phenyl}piperazin-1-yl]phenyl}-2-[(1,R/S)-1-methylpropyl]-2,4-dihydro-3H-1,2,4-triazol-3-one], the “IC50 (minimum concentration to bring about 50% inhibition)” value ([1]; Candida albicans strain 21) was 78 mg/mL (≈ 119000 µM).
`CC[C@H](C)n1ncn(-c2ccc(N3CCN(c4ccc(OC[C@H]5CO[C@@](Cn6cncn6)(c6ccccn6)O5)cc4)CC3)cc2)c1=O` (relative stereo) [Example 13, cis(−)-4-{4-[4-{4-[2-(pyridin-2-yl)-2-(1H-1,2,4-triazol-1-yl-methyl)-1,3-dioxolan-4-yl-methoxy]phenyl}piperazin-1-yl]-phenyl}-2-[(1,S)-1-methylpropyl]-2,4-dihydro-3H-1,2,4-triazol-3-one] was tested, and the IC50 [3] was 460 ± 370 nM, the “IC50 (minimum concentration to bring about 50% inhibition)” value [4] was 1 mg/mL (≈ 1570 µM) and the “IC50 (minimum concentration to bring about 50% inhibition)” value ([1]; Candida albicans strain gen-45) was “≦0.03 mg/ml”. For the same molecule, the “IC50 (minimum concentration to bring about 50% inhibition)” value [5] was “≦0.03 mg/ml”, the IC50 [6] was 27.2 ± 6.7 µM and the IC50 [7] was 28.4 ± 8.8 µM. The IC50 [8] was greater than 100 µM, the IC50 [9] was greater than 100 µM and the “IC50 (minimum concentration to bring about 50% inhibition)” value [2, 12] was 0.25.
`CC[C@H](C)n1ncn(-c2ccc(N3CCN(c4ccc(OC[C@H]5CO[C@@](Cn6cncn6)(c6ccccn6)O5)cc4)CC3)cc2)c1=O` (relative stereo) [Example 14, cis(+)-4-{4-[4-{4-[2-(pyridin-2-yl)-2-(1H-1,2,4-triazol-1-yl-methyl)-1,3-dioxolan-4-yl-methoxy]phenyl}piperazin-1-yl]-phenyl}-2-[(1,S)-1-methylpropyl]-2,4-dihydro-3H-1,2,4-triazol-3-one] was tested, and the IC50 [3] was 190 ± 80 nM, the “IC50 (minimum concentration to bring about 50% inhibition)” value [4] was 2 mg/mL (≈ 3140 µM) and the “IC50 (minimum concentration to bring about 50% inhibition)” value ([1]; Candida albicans strain gen-45) was “≦0.03 mg/ml”. For the same molecule, the “IC50 (minimum concentration to bring about 50% inhibition)” value [5] was 0.06, the IC50 [6] was 40 ± 11.2 µM and the IC50 [7] was 27.9 ± 0.8 µM. The IC50 [8] was greater than 100 µM, the IC50 [9] was greater than 100 µM and the “IC50 (minimum concentration to bring about 50% inhibition)” value [2, 12] was 0.5.
In the case of `CC[C@@H](C)n1ncn(-c2ccc(N3CCN(c4ccc(OC[C@H]5CO[C@@](Cn6cncn6)(c6ccccn6)O5)cc4)CC3)cc2)c1=O` (relative stereo) [Example 15, cis(−)-4-{4-[4-{4-[2-(pyridin-2-yl)-2-(1H-1,2,4-triazol-1-yl-methyl)-1,3-dioxolan-4-yl-methoxy]phenyl}piperazin-1-yl]-phenyl}-2-[(1,R)-1-methylpropyl]-2,4-dihydro-3H-1,2,4-triazol-3-one], the IC50 [3] is reported as 410 ± 130 nM, the “IC50 (minimum concentration to bring about 50% inhibition)” value [4] is reported as 0.25 mg/mL (≈ 392 µM) and the “IC50 (minimum concentration to bring about 50% inhibition)” value ([1]; Candida albicans strain gen-45) is reported as “≦0.03 mg/ml”. For the same molecule, the “IC50 (minimum concentration to bring about 50% inhibition)” value [5] was “≦0.03 mg/ml”, the IC50 [6] was 26.1 ± 1.3 µM and the IC50 [7] was 25.5 ± 4.3 µM. For the same molecule, the IC50 [8] was 84 ± 39.4 µM, the IC50 [9] was greater than 100 µM and the “IC50 (minimum concentration to bring about 50% inhibition)” value [2, 12] was 0.12.
With `CC[C@@H](C)n1ncn(-c2ccc(N3CCN(c4ccc(OC[C@H]5CO[C@@](Cn6cncn6)(c6ccccn6)O5)cc4)CC3)cc2)c1=O` (relative stereo) [Example 16, cis(+)-4-{4-[4-{4-[2-(pyridin-2-yl)-2-(1H-1,2,4-triazol-1-yl-methyl)-1,3-dioxolan-4-yl-methoxy]phenyl}piperazin-1-yl]-phenyl}-2-[(1,R)-1-methylpropyl]-2,4-dihydro-3H-1,2,4-triazol-3-one] the IC50 [3] was 290 ± 10 nM, the “IC50 (minimum concentration to bring about 50% inhibition)” value [4] was 0.5 mg/mL (≈ 784 µM) and the “IC50 (minimum concentration to bring about 50% inhibition)” value ([1]; Candida albicans strain gen-45) was “≦0.03 mg/ml”. For the same molecule, the “IC50 (minimum concentration to bring about 50% inhibition)” value [5] was 0.06, the IC50 [6] was 37.5 ± 6.8 µM and the IC50 [7] was 43.1 ± 15 µM. The IC50 [8] was greater than 100 µM, the IC50 [9] was greater than 100 µM and the “IC50 (minimum concentration to bring about 50% inhibition)” value [2, 12] was 0.25.
With `CCC(C)n1ncn(-c2ccc(N3CCN(c4ccc(OCC5COC(Cn6cncn6)(c6ccc(Cl)cc6Cl)O5)cc4)CC3)cc2)c1=O` (stereo not shown) [Itraconazole, reference compound] the IC50 ([4]; Nakaseomyces glabratus, read-out: IC50 (minimum concentration to bring about 50% inhibition)) was 500 µg/mL (≈ 709 µM), the IC50 ([1]; Candida albicans, read-out: IC50 (minimum concentration to bring about 50% inhibition)) was no more than 30 µg/mL and the IC50 ([5]; Lodderomyces parapsilosis, ATCC22019, read-out: IC50 (minimum concentration to bring about 50% inhibition)) was 120 µg/mL (≈ 170 µM). For the same molecule, the “Surviving mice 21 days after infection” value [10] was 0%, the “Average survival (days) ± S.D.” value ([10]; observed until day 30) was 9.2 ± 1.1 days and the IC50 [6] was 1.6 ± 0.2 µM. It also gave an IC50 [7] of 0.2 ± 0.06 µM, an IC50 [8] greater than 100 µM and an IC50 [9] greater than 100 µM. The IC50 ([2]; read-out: IC50 (minimum concentration to bring about 50% inhibition), Aspergillus fumigatus strain 34) was 1000 µg/mL (≈ 1420 µM) and the IC50 ([2]; read-out: IC50 (minimum concentration to bring about 50% inhibition), Aspergillus fumigatus strain 99-2135) was 250 µg/mL (≈ 354 µM).
Molecule “cis(±)-4-{4-[4-{4-[2-(pyridin-3-yl)-2-(1H-1,2,4-triazol-1-yl-methyl)-1,3-dioxolan-4-yl-methoxy]phenyl}-1-piperazinyl]-phenyl}-2-(1-(R,S)methylpropyl)-2,4-dihydro-3H-1,2,4-triazol-3-one [Example 11]” has an IC50 [3] of 700 ± 100 nM, an IC50 [6] of 64.2 ± 6.2 µM and an IC50 [7] of 31.5 ± 3.9 µM.
In the case of “cis(±)-4-{4-[4-{4-[2-(pyridin-4-yl)-2-(1H-1,2,4-triazol-1-yl-methyl)-1,3-dioxolan-4-yl-methoxy]phenyl}-1-piperazinyl]-phenyl}-2-(1-(R,S)methylpropyl)-2,4-dihydro-3H-1,2,4-triazol-3-one [Example 10]”, the “IC50 (minimum concentration to bring about 50% inhibition)” value ([1]; Candida albicans strain 21) is reported as 39 mg/mL and the “IC50 (minimum concentration to bring about 50% inhibition)” value [2, 11] is reported as 8.
In the case of “cis(±)-4-{4-[4-{4-[2-(thiazol-2-yl)-2-(1H-1,2,4-triazol-1-yl-methyl)-1,3-dioxolan-4-yl-methoxy]phenyl}-1-piperazinyl]-phenyl}-2-(1-(R,S)methylpropyl)-2,4-dihydro-3H-1,2,4-triazol-3-one [Example 12]”, the IC50 [3] is reported as 300 ± 100 nM, the IC50 [6] is reported as 18.2 ± 0.3 µM and the IC50 [7] is reported as 10.9 ± 0.4 µM.
